On to `CN/C(=C(/C#N)C(=O)c1ccc(Cl)cc1)c1ccc(Cl)cc1` [Example 3, 2-(4-chlorobenzoyl)-3-(4-chlorophenyl)-3-(N-methylamino)-propenonitrile], for which the melting point (commonly the temperature of the solid-liquid transition) was found to be 182 °C.

`C/C(NC1CC1)=C(\C#N)C(=S)c1ccc(Cl)cc1` [Example 8, 2-[(4-chlorophenyl)-thiocarbonyl]-3-(N-cyclopropylamino)-crotononitrile] had a melting point of 215 °C.

Source of the values: US7049271B2, “Phenyl-substituted 2-enamino-ketonitriles” (Bayer Aktiengesellschaft, priority 2000, dated 2006).
